Measured values as given in US10662205B2, “Cyclic boronic acid ester derivatives and therapeutic uses thereof” (priority 2014, dated 2020).
Like-named read-outs stand apart in the source and are kept apart here.

Assays:
KP1005 (CTX-M-14) [1] = assay: Aztreonam potentiation (MPC@4); assay type: cell-based; details: aztreonam 4 μg/mL
KP1009 (CTX-M-15) [2] = assay: Aztreonam potentiation (MPC@4); assay type: cell-based; details: aztreonam 4 μg/mL
ec308 (SHV-5) [3] = assay: Aztreonam potentiation (MPC@4); assay type: cell-based; details: aztreonam 4 μg/mL
KP1010 (SHV-12) [4] = assay: Aztreonam potentiation (MPC@4); assay type: cell-based; details: aztreonam 4 μg/mL
ec302 (TEM-10) [5] = assay: Aztreonam potentiation (MPC@4); assay type: cell-based; details: aztreonam 4 μg/mL
KP1004 (KPC-2) [6] = assay: Aztreonam potentiation (MPC@4); assay type: cell-based; details: aztreonam 4 μg/mL
ECL1002 [7] = assay: Aztreonam potentiation (MPC@4); assay type: cell-based; details: aztreonam 4 μg/mL
EC1010 (CMY-6) [8] = assay: Aztreonam potentiation (MPC@4); assay type: cell-based; details: aztreonam 4 μg/mL
KP1005 (CTX-M-14) [9] = assay: Tigemonam potentiation (MPC@4); assay type: cell-based; details: tigemonam 4 μg/mL
KP1009 (CTX-M-15) [10] = assay: Tigemonam potentiation (MPC@4); assay type: cell-based
ec308 (SHV-5) [11] = assay: Tigemonam potentiation (MPC@4); assay type: cell-based; details: tigemonam 4 μg/mL
KP1010 (SHV-12) [12] = assay: Tigemonam potentiation (MPC@4); assay type: cell-based
ec302 (TEM-10) [13] = assay: Tigemonam potentiation (MPC@4); assay type: cell-based; details: tigemonam 4 μg/mL
ECL1002 [14] = assay: Tigemonam potentiation (MPC@4); assay type: cell-based; details: tigemonam 4 μg/mL
EC1010 (CMY-6) [15] = assay: Tigemonam potentiation (MPC@4); assay type: cell-based
CTX-M-14 = CTX-M-14 (Escherichia coli, UniProt Q9L5C7); assay: Inhibition of nitrocefin cleavage by purified enzyme (Ki); assay type: biochemical; details: nitrocefin reporter substrate; 10 min preincubation; read-out: Ki CTX-M-14, NCF
Procedure: (§1) Ki values of inhibition of purified class A, C and D enzymes were determined spectrophotometrically using nitrocefin as reporter substrate. Purified enzymes were mixed with various concentrations of inhibitors in reaction buffer and incubated for 10 min at room temperature. Nitrocefin was added and substrate cleavage profiles were recorded at 490 nm every 10 sec for 10 min.

SHV-12 = SHV-12 (Klebsiella pneumoniae, UniProt P0AD64, E235K/G234S/L31Q); assay: as above; assay type: biochemical
Procedure: as §1

CMY-2 = CMY-2 (Klebsiella pneumoniae, UniProt Q48434); assay: as above; assay type: biochemical
Procedure: as §1, with “min. These experiments confirmed that the described compounds are inhibitors with a broad-spectrum of activity towards various β-lactamases.” for “min.”

KPC-2 = KPC-2 (Klebsiella pneumoniae, UniProt Q9F663); assay: as above; assay type: biochemical; details: nitrocefin reporter substrate; 10 min preincubation; read-out: Ki KPC-2, NCF
Procedure: as §1, with “min. These experiments confirmed that the described compounds are inhibitors with a broad-spectrum of activity towards various β-lactamases.” for “min.”

OXA-48 = OXA-48 (Klebsiella pneumoniae, UniProt Q6XEC0); assay: as above; assay type: biochemical; details: nitrocefin reporter substrate; 10 min preincubation; read-out: Ki OXA-48, NCF
Procedure: as §1, with “min. These experiments confirmed that the described compounds are inhibitors with a broad-spectrum of activity towards various β-lactamases.” for “min.”

P99 = P99 (Enterobacter cloacae, UniProt P05364); assay: biochemical; details: nitrocefin reporter substrate; 10 min preincubation; read-out: Ki P99, NCF
Procedure: as §1

PAM1032/KPC-2 = assay: Biapenem potentiation MPC64, efflux proficient strain; assay type: cell-based, Pseudomonas aeruginosa; parameters: unit not given here; details: efflux proficient (MexAB-OprM overexpressed); decrease biapenem MIC 64-fold, 32 to 0.5 μg/ml
Procedure: (§2) Efflux of BLIs from Pseudomonas aeruginosa by the MexAB-OprM efflux pump was also evaluated. The plasmid expressing the gene encoding KPC-2 was introduced into two strains of P. aeruginosa, PAM1032 and PAM1154 that overexpressed or lacked MexAB-OprM, respectively. Due to expression of KPC-2 both strains became resistant to biapenem. […] Potency of BLIs to potentiate biapenem in these strains was determined. […] The ratio of MPC64 values for each BLI in PAM1032/KPC-2 (efflux proficient) and PAM1154/KPC-2 (efflux deficient) was determined to generate the Efflux Index (EI).

PAM1154/KPC-2 = assay: Biapenem potentiation MPC64, efflux deficient strain; assay type: cell-based, Pseudomonas aeruginosa; parameters: unit not given here; details: efflux deficient (lacks MexAB-OprM); decrease biapenem MIC 64-fold, 32 to 0.5 μg/ml
Procedure: as §2

KP1004 (KPC-2) [16] = assay: Biapenem potentiation (MPC@1); details: biapenem 1 μg/mL
KP1086 (OXA-48) = assay: Biapenem potentiation (MPC@1); details: biapenem 1 μg/mL
[17] = tigemonam 4 μg/mL, EC1010, CMY-6
[18] = nitrocefin reporter substrate, 10 min preincubation, read-out: Ki CMY-2, NCF

SHV-12, sequence (P0AD64 22-286 L31Q/G234S/E235K): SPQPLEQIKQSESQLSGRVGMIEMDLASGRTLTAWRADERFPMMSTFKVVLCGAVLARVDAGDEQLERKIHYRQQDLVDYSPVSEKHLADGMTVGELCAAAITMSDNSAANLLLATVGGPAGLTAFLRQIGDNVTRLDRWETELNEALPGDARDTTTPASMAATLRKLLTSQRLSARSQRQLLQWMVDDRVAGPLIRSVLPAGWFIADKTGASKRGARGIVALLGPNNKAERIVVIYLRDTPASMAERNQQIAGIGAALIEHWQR
P99, sequence (P05364 21-381): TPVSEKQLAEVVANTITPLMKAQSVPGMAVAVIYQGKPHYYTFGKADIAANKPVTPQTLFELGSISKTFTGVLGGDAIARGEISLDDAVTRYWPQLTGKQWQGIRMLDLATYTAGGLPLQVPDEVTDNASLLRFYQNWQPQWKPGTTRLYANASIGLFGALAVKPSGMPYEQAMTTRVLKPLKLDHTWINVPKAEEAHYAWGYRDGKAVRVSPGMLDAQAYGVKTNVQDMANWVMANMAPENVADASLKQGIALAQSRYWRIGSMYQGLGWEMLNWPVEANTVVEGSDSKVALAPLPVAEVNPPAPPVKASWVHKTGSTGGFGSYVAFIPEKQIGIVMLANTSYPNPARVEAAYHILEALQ
CTX-M-14, sequence (Q9L5C7 29-291): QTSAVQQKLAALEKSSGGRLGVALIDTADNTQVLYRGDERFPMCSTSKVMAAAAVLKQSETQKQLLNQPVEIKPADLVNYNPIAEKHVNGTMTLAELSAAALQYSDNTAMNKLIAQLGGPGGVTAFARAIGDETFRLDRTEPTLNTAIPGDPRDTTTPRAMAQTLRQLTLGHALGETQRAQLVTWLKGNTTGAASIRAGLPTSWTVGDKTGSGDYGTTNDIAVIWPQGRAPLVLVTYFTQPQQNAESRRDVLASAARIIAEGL
OXA-48, sequence (Q6XEC0 23-265, looked up, species assumed): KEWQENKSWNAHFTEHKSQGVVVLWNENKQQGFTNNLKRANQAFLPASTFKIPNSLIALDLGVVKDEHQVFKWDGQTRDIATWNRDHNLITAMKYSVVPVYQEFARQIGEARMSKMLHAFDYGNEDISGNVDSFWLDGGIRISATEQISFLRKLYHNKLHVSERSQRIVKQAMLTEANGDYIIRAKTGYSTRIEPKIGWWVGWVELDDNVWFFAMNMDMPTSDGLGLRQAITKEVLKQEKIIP
CMY-2, sequence (Q48434 21-381, species assumed): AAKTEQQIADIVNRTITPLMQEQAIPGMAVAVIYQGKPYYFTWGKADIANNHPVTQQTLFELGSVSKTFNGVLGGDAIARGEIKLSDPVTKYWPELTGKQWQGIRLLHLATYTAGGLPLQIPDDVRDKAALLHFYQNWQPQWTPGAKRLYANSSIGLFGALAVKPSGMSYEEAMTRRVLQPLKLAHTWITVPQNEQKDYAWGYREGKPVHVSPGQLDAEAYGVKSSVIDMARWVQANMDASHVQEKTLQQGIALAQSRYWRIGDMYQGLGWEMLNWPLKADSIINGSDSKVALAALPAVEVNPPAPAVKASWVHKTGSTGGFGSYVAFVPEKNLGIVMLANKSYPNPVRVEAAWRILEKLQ
KPC-2, sequence (Q9F663 25-293, looked up, species assumed): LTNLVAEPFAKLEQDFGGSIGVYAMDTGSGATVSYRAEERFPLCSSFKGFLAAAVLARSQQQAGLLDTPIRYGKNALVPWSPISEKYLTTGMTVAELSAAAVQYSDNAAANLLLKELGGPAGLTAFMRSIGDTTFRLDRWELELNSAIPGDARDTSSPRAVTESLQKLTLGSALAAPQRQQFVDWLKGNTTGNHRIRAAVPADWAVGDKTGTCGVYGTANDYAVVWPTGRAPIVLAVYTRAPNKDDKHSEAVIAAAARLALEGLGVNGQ

Row | Compound | MPC@4 aztreonam potentiation (KP1005 (CTX-M-14) [1]) | MPC@4 aztreonam potentiation (KP1009 (CTX-M-15) [2]) | MPC@4 aztreonam potentiation (ec308 (SHV-5) [3]) | MPC@4 aztreonam potentiation (KP1010 (SHV-12) [4]) | MPC@4 aztreonam potentiation (ec302 (TEM-10) [5]) | MPC@4 aztreonam potentiation (KP1004 (KPC-2) [6]) | MPC@4 aztreonam potentiation (ECL1002 [7]) | MPC@4 aztreonam potentiation (EC1010 (CMY-6) [8]) | MPC@4 tigemonam potentiation (KP1005 (CTX-M-14) [9]) | MPC@4 tigemonam potentiation (KP1009 (CTX-M-15) [10]) | MPC@4 tigemonam potentiation (ec308 (SHV-5) [11]) | MPC@4 tigemonam potentiation (KP1010 (SHV-12) [12]) | MPC@4 tigemonam potentiation (ec302 (TEM-10) [13]) | MPC@4 tigemonam potentiation (ECL1002 [14]) | MPC@4 tigemonam potentiation (EC1010 (CMY-6) [15]; [17]) | Ki (CTX-M-14) [nM] | Ki (KPC-2) [nM] | Ki (OXA-48) [nM] | MPC@1 biapenem potentiation (KP1004 (KPC-2) [16]) | MPC@1 biapenem potentiation (KP1086 (OXA-48)) | other results
1 | N#CCSCC(=O)N[C@H]1CC=C[C@@H]2CC(=O)OB1O2 [Compound 2, 2-(CYANOMETHYLTHIO)-N-((2R,6S)-8-OXO-9,10-DIOXA-1-BORABICYCLO[4.3.1]DEC-4-EN-2-YL)ACETAMIDE] | X (X = MPC@4 ≤ 5 μg/mL) | X (X = MPC@4 ≤ 5 μg/mL) | X (X = MPC@4 ≤ 5 μg/mL) | X (X = MPC@4 ≤ 5 μg/mL) | X (X = MPC@4 ≤ 5 μg/mL) | X (X = MPC@4 ≤ 5 μg/mL) | X (X = MPC@4 ≤ 5 μg/mL) | X (X = MPC@4 ≤ 5 μg/mL) | X (X = MPC@4 ≤ 5 μg/mL) | X (key: X = MPC@4 ≤ 5 μg/mL; Y = 5 μg/mL < MPC@4 ≤ 20 μg/mL; Z = MPC@4 > 20 μg/mL) | X (X = MPC@4 ≤ 5 μg/mL) | X (key: X = MPC@4 ≤ 5 μg/mL; Y = 5 μg/mL < MPC@4 ≤ 20 μg/mL; Z = MPC@4 > 20 μg/mL) | Y (Y = 5 μg/mL < MPC@4 ≤ 20 μg/mL) | X (X = MPC@4 ≤ 5 μg/mL) | X (X = MPC@4 ≤ 5 μg/mL) | < 100 | 100 to 1000 | 100 to 1000 | X (X = MPC@1 ≤ 5 μg/mL) | Z (Z = MPC@1 > 20 μg/mL) | Ki (SHV-12): < 100 nM; Ki (CMY-2; [18]): < 100 nM; Ki (P99): < 100 nM; PAM1032/KPC-2 Biapenem MPC64 (PAM1032/KPC-2): 80; PAM1154/KPC-2 Biapenem MPC64 (PAM1154/KPC-2): 5
2 | O=C(CSc1nncs1)N[C@H]1CC=C[C@@H]2CC(=O)OB1O2 [Compound 7, 2-(1,3,4-THIADIAZOL-2-YLTHIO)-N-((2R,6S)-8-OXO-9,10-DIOXA-1-BORABICYCLO[4.3.1]DEC-4-EN-2-YL)ACETAMIDE] | X (X = MPC@4 ≤ 5 μg/mL) | X (X = MPC@4 ≤ 5 μg/mL) | X (X = MPC@4 ≤ 5 μg/mL) | X (X = MPC@4 ≤ 5 μg/mL) | X (X = MPC@4 ≤ 5 μg/mL) | X (X = MPC@4 ≤ 5 μg/mL) | X (X = MPC@4 ≤ 5 μg/mL) | X (X = MPC@4 ≤ 5 μg/mL) | X (X = MPC@4 ≤ 5 μg/mL) | X (key: X = MPC@4 ≤ 5 μg/mL; Y = 5 μg/mL < MPC@4 ≤ 20 μg/mL; Z = MPC@4 > 20 μg/mL) | X (X = MPC@4 ≤ 5 μg/mL) | X (key: X = MPC@4 ≤ 5 μg/mL; Y = 5 μg/mL < MPC@4 ≤ 20 μg/mL; Z = MPC@4 > 20 μg/mL) | Y (Y = 5 μg/mL < MPC@4 ≤ 20 μg/mL) | X (X = MPC@4 ≤ 5 μg/mL) | X (X = MPC@4 ≤ 5 μg/mL) | < 100 | 100 to 1000 | < 100 | X (X = MPC@1 ≤ 5 μg/mL) | Z (Z = MPC@1 > 20 μg/mL) | Ki (SHV-12): < 100 nM; Ki (CMY-2; [18]): < 100 nM; Ki (P99): < 100 nM; PAM1032/KPC-2 Biapenem MPC64 (PAM1032/KPC-2): 40; PAM1154/KPC-2 Biapenem MPC64 (PAM1154/KPC-2): 5
3 | C[C@]1(Cn2ccnn2)[C@H](C(=O)O)N2C(=O)C[C@H]2S1(=O)=O [Tazobactam, reference compound] | Y (Y = 5 μg/mL < MPC@4 ≤ 20 μg/mL) | Y (Y = 5 μg/mL < MPC@4 ≤ 20 μg/mL) | – | X (X = MPC@4 ≤ 5 μg/mL) | X (X = MPC@4 ≤ 5 μg/mL) | Z (Z = MPC@4 > 20 μg/mL) | Z (Z = MPC@4 > 20 μg/mL) | Y (Y = 5 μg/mL < MPC@4 ≤ 20 μg/mL) | – | – | X (X = MPC@4 ≤ 5 μg/mL) | – | X (X = MPC@4 ≤ 5 μg/mL) | – | X (X = MPC@4 ≤ 5 μg/mL) | – | > 1000 | 100 to 1000 | Z (Z = MPC@1 > 20 μg/mL) | Y (Y = 5 μg/mL < MPC@1 ≤ 20 μg/mL) | MPC@4 tigemonam potentiation (KP1009 (CTX-M-15) [10]; tigemonam 4 μg/mL, KP1009, CTX-M-15): Y (Y = 5 μg/mL < MPC@4 ≤ 20 μg/mL); MPC@4 tigemonam potentiation (KP1010 (SHV-12) [12]; tigemonam 4 μg/mL, KP1010, SHV-12): X (X = MPC@4 ≤ 5 μg/mL); Ki (CMY-2): 100 to 1000 nM
4 | O=C(O)[C@H]1/C(=C/CO)O[C@@H]2CC(=O)N21 [Clavulanic Acid, reference compound] | X (X = MPC@4 ≤ 5 μg/mL) | X (X = MPC@4 ≤ 5 μg/mL) | X (X = MPC@4 ≤ 5 μg/mL) | X (X = MPC@4 ≤ 5 μg/mL) | X (X = MPC@4 ≤ 5 μg/mL) | Z (Z = MPC@4 > 20 μg/mL) | Z (Z = MPC@4 > 20 μg/mL) | Z (Z = MPC@4 > 20 μg/mL) | X (X = MPC@4 ≤ 5 μg/mL) | X (key: X = MPC@4 ≤ 5 μg/mL; Y = 5 μg/mL < MPC@4 ≤ 20 μg/mL; Z = MPC@4 > 20 μg/mL) | X (X = MPC@4 ≤ 5 μg/mL) | X (key: X = MPC@4 ≤ 5 μg/mL; Y = 5 μg/mL < MPC@4 ≤ 20 μg/mL; Z = MPC@4 > 20 μg/mL) | X (X = MPC@4 ≤ 5 μg/mL) | Y (Y = 5 μg/mL < MPC@4 ≤ 20 μg/mL) | – | < 100 | > 1000 | > 1000 | Y (Y = 5 μg/mL < MPC@1 ≤ 20 μg/mL) | Z (Z = MPC@1 > 20 μg/mL) | MPC@4 tigemonam potentiation (EC1010 (CMY-6) [15]): Y (key: X = MPC@4 ≤ 5 μg/mL; Y = 5 μg/mL < MPC@4 ≤ 20 μg/mL; Z = MPC@4 > 20 μg/mL); Ki (CMY-2; [18]): > 1000 nM
5 | Cc1nnc(SCC(=O)N[C@H]2CC=C[C@@H]3CC(=O)OB2O3)s1 [Compound 8, 2-(5-METHYL-1,3,4-THIADIAZOL-2-YLTHIO)-N-((2R,6S)-8-OXO-9,10-DIOXA-1-BORABICYCLO[4.3.1]DEC-4-EN-2-YL)ACETAMIDE] | X (X = MPC@4 ≤ 5 μg/mL) | – | X (X = MPC@4 ≤ 5 μg/mL) | X (X = MPC@4 ≤ 5 μg/mL) | X (X = MPC@4 ≤ 5 μg/mL) | Y (Y = 5 μg/mL < MPC@4 ≤ 20 μg/mL) | X (X = MPC@4 ≤ 5 μg/mL) | Y (Y = 5 μg/mL < MPC@4 ≤ 20 μg/mL) | Y (Y = 5 μg/mL < MPC@4 ≤ 20 μg/mL) | X (key: X = MPC@4 ≤ 5 μg/mL; Y = 5 μg/mL < MPC@4 ≤ 20 μg/mL; Z = MPC@4 > 20 μg/mL) | Y (Y = 5 μg/mL < MPC@4 ≤ 20 μg/mL) | X (key: X = MPC@4 ≤ 5 μg/mL; Y = 5 μg/mL < MPC@4 ≤ 20 μg/mL; Z = MPC@4 > 20 μg/mL) | Y (Y = 5 μg/mL < MPC@4 ≤ 20 μg/mL) | X (X = MPC@4 ≤ 5 μg/mL) | X (X = MPC@4 ≤ 5 μg/mL) | < 100 | 100 to 1000 | < 100 | X (X = MPC@1 ≤ 5 μg/mL) | Z (Z = MPC@1 > 20 μg/mL) | Ki (SHV-12): < 100 nM; Ki (CMY-2; [18]): < 100 nM; Ki (P99): < 100 nM
